Assay results taken from ChEMBL document CHEMBL3758137 (Eur J Med Chem, 2016).

How the values were obtained:
[1] = biological target: T1, Tyrosine-protein kinase receptor TYRO3 (Homo sapiens, UniProt Q06418); assay: Inhibition of recombinant human TyrO3 using poly (Glu,Tyr)4:1 as substrate after 60 mins by ELISA
T1 sequence (Q06418 whole entry): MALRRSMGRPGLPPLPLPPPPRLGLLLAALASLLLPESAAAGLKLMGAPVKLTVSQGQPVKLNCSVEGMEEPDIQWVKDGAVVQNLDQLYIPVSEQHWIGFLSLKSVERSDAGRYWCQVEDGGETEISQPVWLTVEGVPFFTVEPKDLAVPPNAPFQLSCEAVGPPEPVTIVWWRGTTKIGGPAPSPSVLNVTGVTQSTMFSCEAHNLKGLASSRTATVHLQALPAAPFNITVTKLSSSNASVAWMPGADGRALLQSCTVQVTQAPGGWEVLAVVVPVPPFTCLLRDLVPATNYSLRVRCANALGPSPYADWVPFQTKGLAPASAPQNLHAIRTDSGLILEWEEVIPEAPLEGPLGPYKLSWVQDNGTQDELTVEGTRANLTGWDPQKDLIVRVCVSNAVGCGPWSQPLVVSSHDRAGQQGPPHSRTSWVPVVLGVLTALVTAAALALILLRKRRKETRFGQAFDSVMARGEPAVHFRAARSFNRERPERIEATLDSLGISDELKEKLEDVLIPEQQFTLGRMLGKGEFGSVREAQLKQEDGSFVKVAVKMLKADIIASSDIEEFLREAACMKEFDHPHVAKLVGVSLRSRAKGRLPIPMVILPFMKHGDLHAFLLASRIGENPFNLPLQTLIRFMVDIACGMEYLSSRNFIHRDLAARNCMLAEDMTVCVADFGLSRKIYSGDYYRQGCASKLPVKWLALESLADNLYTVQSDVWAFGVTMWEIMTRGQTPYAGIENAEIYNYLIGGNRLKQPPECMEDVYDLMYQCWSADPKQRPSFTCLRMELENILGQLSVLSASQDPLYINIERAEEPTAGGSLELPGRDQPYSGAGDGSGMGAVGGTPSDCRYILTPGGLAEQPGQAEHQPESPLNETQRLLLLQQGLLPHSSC

[2] = Intrinsic clearance in mouse liver microsomes at 0.1 uM after 7 to 60 mins by LC-MS/MS analysis; format: ADME
[3] = biological target: Proto-oncogene tyrosine-protein kinase Src (Homo sapiens, UniProt P12931); assay: Inhibition of recombinant human c-Src using poly (Glu,Tyr)4:1 as substrate after 60 mins by ELISA
[4] = biological target: Vascular endothelial growth factor receptor 1 (Homo sapiens, UniProt P17948); assay: Inhibition of recombinant human Flt-1 using poly (Glu,Tyr)4:1 as substrate after 60 mins by ELISA
[5] = AUC (0 to 8 hrs) in mouse plasma at 10 mg/kg, po; format: ADME, organism-based; parameters: dose 10 mg/kg, time < 8 hr, route oral
[6] = Antiproliferative activity against human EBC1 cells after 72 hrs by SRB assay; conditions: EBC-1, 72 h
[7] = biological target: T2, Tyrosine-protein kinase receptor UFO (Homo sapiens, UniProt P30530); assay: Inhibition of recombinant human Axl using poly (Glu,Tyr)4:1 as substrate after 60 mins by ELISA
T2 sequence (P30530 whole entry): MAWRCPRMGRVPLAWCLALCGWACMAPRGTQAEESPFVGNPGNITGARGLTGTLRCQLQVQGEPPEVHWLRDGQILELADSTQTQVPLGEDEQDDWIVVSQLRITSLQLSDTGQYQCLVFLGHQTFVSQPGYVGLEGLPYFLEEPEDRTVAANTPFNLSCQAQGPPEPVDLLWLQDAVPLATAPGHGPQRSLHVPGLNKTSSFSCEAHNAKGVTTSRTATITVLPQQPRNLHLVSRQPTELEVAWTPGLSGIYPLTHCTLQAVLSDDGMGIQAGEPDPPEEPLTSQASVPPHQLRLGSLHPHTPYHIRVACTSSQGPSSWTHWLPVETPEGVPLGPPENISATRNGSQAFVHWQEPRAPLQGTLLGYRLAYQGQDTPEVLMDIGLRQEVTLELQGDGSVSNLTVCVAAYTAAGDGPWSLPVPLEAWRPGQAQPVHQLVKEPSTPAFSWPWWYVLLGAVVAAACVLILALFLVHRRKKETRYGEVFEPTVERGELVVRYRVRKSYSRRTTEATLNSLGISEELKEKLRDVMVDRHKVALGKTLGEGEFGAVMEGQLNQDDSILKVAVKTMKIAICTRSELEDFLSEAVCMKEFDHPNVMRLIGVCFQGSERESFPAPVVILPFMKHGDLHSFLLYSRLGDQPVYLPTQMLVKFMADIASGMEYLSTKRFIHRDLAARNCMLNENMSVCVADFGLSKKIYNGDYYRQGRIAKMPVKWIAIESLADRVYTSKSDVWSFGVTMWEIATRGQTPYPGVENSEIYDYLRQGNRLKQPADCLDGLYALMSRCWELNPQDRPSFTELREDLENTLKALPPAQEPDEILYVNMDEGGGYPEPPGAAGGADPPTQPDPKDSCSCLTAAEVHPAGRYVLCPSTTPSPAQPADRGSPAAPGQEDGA

[8] = biological target: Macrophage-stimulating protein receptor (Homo sapiens, UniProt Q04912); assay: Inhibition of recombinant human Ron using poly (Glu,Tyr)4:1 as substrate after 60 mins by ELISA
[9] = Antitumor activity against human EBC1 cells xenografted in nude mouse assessed as tumor growth inhibition at 5 mg/kg, po qd administered for 21 days relative to control; format: functional; conditions: EBC-1, po, 504 h, read-out: TGI
[10] = biological target: Receptor tyrosine-protein kinase erbB-2 (Homo sapiens, UniProt P04626); assay: Inhibition of recombinant human ErbB2 using poly (Glu,Tyr)4:1 as substrate after 60 mins by ELISA
[11] = biological target: Platelet-derived growth factor receptor beta (Homo sapiens, UniProt P09619); assay: Inhibition of recombinant human PDGFR-beta using poly (Glu,Tyr)4:1 as substrate after 60 mins by ELISA
[12] = biological target: Vascular endothelial growth factor receptor 2 (Homo sapiens, UniProt P35968); assay: Inhibition of recombinant human KDR using poly (Glu,Tyr)4:1 as substrate after 60 mins by ELISA
[13] = biological target: Hepatocyte growth factor receptor (Homo sapiens, UniProt P08581); assay: Inhibition of recombinant c-Met (unknown origin) using poly (Glu,Tyr)4:1 as substrate after 60 mins by ELISA
Liver microsome = assay: Intrinsic clearance in human liver microsomes at 0.1 uM after 7 to 60 mins by LC-MS/MS analysis; format: ADME
[14] = Solubility of compound in TRIS buffer by nephelometric analysis in presence of 0.1% BSA; format: physicochemical; conditions: TRIS buffer with 0.1% BSA
[15] = Solubility of compound in HBSS/HEPES buffer at pH 7.4 by nephelometric analysis in presence of 0.1% BSA; format: physicochemical; conditions: HBSS/HEPES buffer with 0.1% BSA
[16] = biological target: Tyrosine-protein kinase ABL1 (Homo sapiens, UniProt P00519); assay: Inhibition of recombinant human ABL using poly (Glu,Tyr)4:1 as substrate after 60 mins by ELISA

Sequence of Proto-oncogene tyrosine-protein kinase Src (P12931 2-536 limits assumed): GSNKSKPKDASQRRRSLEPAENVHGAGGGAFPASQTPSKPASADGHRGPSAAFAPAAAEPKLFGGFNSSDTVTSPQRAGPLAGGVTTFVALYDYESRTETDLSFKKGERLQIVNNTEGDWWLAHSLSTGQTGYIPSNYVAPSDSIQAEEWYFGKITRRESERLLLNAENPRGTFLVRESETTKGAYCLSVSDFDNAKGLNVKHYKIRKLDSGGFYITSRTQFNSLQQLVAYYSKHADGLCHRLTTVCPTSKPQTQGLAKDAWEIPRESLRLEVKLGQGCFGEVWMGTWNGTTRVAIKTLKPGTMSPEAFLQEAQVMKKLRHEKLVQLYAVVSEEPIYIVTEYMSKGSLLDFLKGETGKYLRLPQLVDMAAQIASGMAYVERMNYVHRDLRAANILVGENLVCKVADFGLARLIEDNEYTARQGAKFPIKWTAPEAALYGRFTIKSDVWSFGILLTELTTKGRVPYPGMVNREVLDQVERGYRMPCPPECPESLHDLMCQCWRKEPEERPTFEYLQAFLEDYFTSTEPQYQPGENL
Sequence of Vascular endothelial growth factor receptor 2 (P35968 whole entry): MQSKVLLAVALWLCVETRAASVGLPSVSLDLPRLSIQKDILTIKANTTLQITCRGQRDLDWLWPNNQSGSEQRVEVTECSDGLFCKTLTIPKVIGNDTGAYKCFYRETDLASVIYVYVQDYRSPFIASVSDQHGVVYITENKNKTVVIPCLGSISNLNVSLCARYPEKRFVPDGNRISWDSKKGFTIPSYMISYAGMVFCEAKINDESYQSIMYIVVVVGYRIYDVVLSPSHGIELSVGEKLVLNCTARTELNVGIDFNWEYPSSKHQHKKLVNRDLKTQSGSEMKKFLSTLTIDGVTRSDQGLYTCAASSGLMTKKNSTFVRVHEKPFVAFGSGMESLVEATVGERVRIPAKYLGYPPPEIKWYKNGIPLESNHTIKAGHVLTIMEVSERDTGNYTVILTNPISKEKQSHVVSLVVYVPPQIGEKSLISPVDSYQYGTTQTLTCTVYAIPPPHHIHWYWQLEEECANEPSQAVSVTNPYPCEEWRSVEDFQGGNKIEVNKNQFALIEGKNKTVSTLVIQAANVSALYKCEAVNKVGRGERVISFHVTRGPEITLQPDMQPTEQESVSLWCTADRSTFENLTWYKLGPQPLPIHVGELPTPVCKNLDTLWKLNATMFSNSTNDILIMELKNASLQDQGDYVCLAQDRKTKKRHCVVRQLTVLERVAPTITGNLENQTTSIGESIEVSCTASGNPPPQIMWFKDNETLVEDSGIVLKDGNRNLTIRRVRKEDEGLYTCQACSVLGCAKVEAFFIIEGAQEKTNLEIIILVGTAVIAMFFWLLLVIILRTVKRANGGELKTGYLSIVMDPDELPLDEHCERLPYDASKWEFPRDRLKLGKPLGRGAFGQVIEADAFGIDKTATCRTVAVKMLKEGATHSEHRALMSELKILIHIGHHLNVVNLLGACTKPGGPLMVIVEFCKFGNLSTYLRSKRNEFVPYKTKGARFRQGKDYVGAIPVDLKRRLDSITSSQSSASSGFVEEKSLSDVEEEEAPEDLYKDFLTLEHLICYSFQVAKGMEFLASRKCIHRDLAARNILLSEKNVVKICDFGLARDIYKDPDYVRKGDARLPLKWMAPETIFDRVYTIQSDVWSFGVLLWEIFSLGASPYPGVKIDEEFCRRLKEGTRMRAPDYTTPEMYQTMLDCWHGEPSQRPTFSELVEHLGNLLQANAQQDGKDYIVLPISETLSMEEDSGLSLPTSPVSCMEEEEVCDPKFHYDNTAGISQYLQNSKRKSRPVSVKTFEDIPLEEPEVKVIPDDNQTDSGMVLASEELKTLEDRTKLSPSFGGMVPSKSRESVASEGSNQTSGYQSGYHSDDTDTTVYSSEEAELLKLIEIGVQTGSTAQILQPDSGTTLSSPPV
Sequence of Macrophage-stimulating protein receptor (Q04912 25-304 limits assumed): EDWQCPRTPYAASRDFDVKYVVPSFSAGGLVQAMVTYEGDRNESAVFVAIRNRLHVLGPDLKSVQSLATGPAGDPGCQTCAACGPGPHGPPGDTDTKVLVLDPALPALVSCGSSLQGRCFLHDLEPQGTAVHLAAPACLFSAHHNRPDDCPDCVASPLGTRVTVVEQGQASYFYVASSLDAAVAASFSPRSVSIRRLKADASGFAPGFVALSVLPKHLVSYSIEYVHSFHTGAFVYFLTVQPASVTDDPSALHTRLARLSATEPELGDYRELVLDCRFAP
Sequence of Macrophage-stimulating protein receptor (Q04912 310-1400 limits assumed): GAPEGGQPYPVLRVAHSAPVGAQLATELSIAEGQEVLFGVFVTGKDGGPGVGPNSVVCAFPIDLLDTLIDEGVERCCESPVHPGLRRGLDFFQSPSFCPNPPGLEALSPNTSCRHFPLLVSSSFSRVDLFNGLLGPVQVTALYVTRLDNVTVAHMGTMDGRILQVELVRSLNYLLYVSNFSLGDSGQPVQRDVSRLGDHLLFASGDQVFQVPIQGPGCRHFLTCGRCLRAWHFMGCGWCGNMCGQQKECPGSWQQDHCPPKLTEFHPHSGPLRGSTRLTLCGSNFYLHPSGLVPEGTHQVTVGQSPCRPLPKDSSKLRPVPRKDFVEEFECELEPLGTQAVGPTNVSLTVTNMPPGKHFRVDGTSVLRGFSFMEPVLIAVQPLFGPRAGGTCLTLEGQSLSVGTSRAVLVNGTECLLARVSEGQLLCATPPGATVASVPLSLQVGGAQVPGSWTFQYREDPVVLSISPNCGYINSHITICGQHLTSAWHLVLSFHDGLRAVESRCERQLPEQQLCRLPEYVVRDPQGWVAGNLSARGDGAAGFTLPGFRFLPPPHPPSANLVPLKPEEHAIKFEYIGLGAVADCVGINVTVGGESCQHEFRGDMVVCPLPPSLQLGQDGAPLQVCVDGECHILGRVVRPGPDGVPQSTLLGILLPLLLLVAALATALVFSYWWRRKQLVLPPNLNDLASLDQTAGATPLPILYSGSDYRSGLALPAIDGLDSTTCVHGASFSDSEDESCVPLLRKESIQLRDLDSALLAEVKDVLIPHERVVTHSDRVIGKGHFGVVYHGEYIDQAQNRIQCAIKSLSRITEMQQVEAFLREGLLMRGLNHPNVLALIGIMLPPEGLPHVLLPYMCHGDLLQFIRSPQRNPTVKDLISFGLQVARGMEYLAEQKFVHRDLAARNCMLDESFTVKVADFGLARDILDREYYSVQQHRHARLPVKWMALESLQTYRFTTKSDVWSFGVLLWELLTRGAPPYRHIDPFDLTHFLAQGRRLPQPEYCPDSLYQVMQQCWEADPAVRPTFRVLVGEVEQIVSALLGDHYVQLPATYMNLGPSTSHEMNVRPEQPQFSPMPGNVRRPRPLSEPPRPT
Sequence of Vascular endothelial growth factor receptor 1 (P17948 whole entry): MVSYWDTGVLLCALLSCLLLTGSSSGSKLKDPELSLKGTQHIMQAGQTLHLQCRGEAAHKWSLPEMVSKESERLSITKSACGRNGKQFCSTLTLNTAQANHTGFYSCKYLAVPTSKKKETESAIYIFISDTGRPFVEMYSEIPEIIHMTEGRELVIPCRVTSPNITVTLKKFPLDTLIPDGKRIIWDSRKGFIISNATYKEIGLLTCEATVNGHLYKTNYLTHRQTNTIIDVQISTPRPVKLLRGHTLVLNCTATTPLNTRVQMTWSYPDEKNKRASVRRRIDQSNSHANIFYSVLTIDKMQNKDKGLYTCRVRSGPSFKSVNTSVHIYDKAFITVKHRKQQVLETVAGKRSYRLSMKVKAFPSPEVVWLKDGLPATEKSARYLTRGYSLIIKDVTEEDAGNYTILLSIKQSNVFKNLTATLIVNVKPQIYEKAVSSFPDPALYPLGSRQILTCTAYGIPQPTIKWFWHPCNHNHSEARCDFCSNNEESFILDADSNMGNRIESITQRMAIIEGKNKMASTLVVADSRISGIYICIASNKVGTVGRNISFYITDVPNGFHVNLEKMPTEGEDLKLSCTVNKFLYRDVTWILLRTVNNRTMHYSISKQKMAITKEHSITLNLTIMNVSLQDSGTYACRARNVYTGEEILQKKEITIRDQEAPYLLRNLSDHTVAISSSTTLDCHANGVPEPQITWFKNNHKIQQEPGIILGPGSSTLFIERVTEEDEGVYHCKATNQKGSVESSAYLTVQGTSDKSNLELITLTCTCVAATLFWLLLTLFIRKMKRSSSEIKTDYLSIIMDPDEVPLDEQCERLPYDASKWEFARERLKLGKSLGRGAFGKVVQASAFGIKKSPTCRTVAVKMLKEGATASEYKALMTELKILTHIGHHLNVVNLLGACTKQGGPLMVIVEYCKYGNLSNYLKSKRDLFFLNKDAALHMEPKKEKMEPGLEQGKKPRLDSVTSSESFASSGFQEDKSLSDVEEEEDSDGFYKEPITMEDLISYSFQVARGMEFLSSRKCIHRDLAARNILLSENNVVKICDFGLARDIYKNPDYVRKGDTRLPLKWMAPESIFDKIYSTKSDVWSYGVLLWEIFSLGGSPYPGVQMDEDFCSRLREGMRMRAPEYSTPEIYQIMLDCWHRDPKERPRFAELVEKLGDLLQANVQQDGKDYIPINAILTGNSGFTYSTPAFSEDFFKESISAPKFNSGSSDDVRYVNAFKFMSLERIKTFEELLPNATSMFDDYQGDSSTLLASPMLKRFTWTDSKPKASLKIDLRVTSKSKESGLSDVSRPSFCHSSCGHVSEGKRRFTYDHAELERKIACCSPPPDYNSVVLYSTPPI

IC50 [1]: > 1000 nM
CLH [2]: 16 mL/min/g
IC50 [3]: > 1000 nM
IC50 [4]: > 1000 nM
AUC(0-t) at 8 h [5]: 1750 ng·h/mL
IC50 [7]: > 1000 nM
IC50 [8]: > 1000 nM
IC50 [10]: > 1000 nM
IC50 [11]: > 1000 nM
IC50 [12]: > 1000 nM
IC50 [13]: 7.5 nM
CLH (Liver microsome): 9 mL/min/g
solubility kinetic [14]: 51 µM
solubility kinetic [15]: 51 µM
IC50 [16]: > 1000 nM
Compound: Cn1cc(-c2cnc(Nc3cccc(Cn4nc(-c5cnn(C)c5)ccc4=O)c3)nc2)cn1
IC50 [6]: 31.2 nM
inhibition in vivo at 5 mg/kg [9]: 42.5%
